Measurements from US20100120715A1, “BETA-LACTAMASE INHIBITORS” (priority 2007, published 2010).
Read-outs that look alike come from different tables or passages of the source.

What was measured:
Class A ESBL SHV-5 = target: T1, Class A ESBL SHV-5 (Klebsiella pneumoniae, UniProt P0A3M1); type: biochemical, E. coli; settings: nitrocefin 100 μM, PBS pH 7.0, read-out: SHV-5 IC50 Range
T1 construct: made in house; host or cells: E. coli BL21(DE3) for purified enzyme; E. coli cells containing SHV-5 for extracts
T1 sequence (P0A3M1 22-286): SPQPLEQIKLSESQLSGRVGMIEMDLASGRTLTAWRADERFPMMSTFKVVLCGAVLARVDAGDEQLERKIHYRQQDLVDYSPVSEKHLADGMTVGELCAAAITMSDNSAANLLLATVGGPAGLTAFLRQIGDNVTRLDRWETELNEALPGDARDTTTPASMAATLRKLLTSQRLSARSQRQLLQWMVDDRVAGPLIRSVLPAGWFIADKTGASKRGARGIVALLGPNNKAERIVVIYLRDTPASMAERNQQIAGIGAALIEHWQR
Protocol: (§1) Isolation of β-lactamases. For all examples, purified beta-lactamase enzymes were used to measure a compounds' ability to inhibit the Class A ESBL CTXM-15, the Class C P99 AmpC and the Class A carbapenemase KPC-2. […] The enzyme preparations are described herein.
For the preparation of SHV-5 extracts, E. coli cells containing SHV-5 were cultured overnight with shaking at a volume of 20 mL. They were further diluted 10-fold and grown to mid-log phase (OD at 600 nm, 0.5-0.8) in Mueller-Hinton II (MH-II) broth at 37° C. The cells were pelleted at 5000 g, washed and resuspended in 2 mL PBS pH 7.0. The β-lactamase was extracted by four cycles of freezing and thawing followed by centrifugation. β-lactamase activity in the extract was measured with the chromogenic cephalosporin nitrocefin. The amount of protein in each β-lactamase preparation was determined by the bicinchoninic acid (BCA) assay.
(§2) For the isolation and purification of SHV-5, p99 AmpC, KPC-2 and CTX-M15 β-lactamases, E. coli BL21(DE3) bacterial cells carrying expression plasmids (expressed as native untagged proteins) for the individual β-lactamases were grown in 1 L of Superbroth (Teknova Inc. Hollister, Calif.) supplemented with 100 μg/ml kanamycin and 1×5052 (0.5% glycerol, 0.05% glucose and 0.2% α-lactose) at 35° C. for 18-20 hours. Cells were harvested by centrifugation (4,000×g, 4° C., 20 min), and resuspended in 50 ml of 10 mM HEPES pH 7.5 ( 1/20 of the initial volume). The cells were lysed by sonication (5 pulses of 45 seconds) at 45 W on ice. The lysates were clarified by centrifugation at 10,000×g for 40 minutes at 4° C. Samples were diluted 5-fold in 50 mM sodium acetate pH 5.0, stored overnight at 4° C., after which they were centrifuged at 10,000×g for 30 minutes to clarify, and filtered through 0.45 μm filters. The samples were loaded onto a 5 ml Capto S sepharose cation exchange column (GE Healthcare) pre-equilibrated with 50 mM sodium acetate pH 5.0. The column was washed with 5 column volumes of 50 mM sodium acetate pH 5.0 to wash out unbound protein and a linear gradient of NaCl (0 to 500 mM) was used to elute the protein (over 16 CV) from the column. Fractions were assayed for β-lactamase activity using Centa (Calbiochem, Gibbstown, N.J.) as a reporter β-lactamase substrate for activity in the isolated fractions. Active fractions were pooled, concentrated and further purified by gel filtration chromatography on a Superdex 75 prep grade gel filtration column (GE Healthcare, Piscataway, N.J.) pre-equilibrated in 50 mM Hepes pH 7.5, 150 mM NaCl. Active fractions were pooled concentrated, quantitated by BCA protein determination (Thermo Scientific, Rockford, Ill.), and frozen at −80° C. in 20% glycerol until use.
(§3) β-lactamase Inhibition. To determine the level of inhibition of β-lactamaseenzymes, compounds were diluted in PBS at pH 7.0 to yield concentrations between 100 and 0.005 μM in microtiter plates. An equal volume of diluted enzyme stock was added, and the plates were incubated at 37° C. for 10 min. Nitrocefin solution was then dispensed as substrate into each well at a final concentration of 100 μM, and the plates were immediately read with the kinetic program at 486 nm for 10 min on the SPECTRAMAX® Plus^384 (high-throughput microplate spectrophotometer; Molecular Devices Corp., Sunnyvale, Calif.). Maximum rates of metabolism were then compared to those in control wells (without inhibitors), and percentages of enzyme inhibition were calculated for each concentration of inhibitor. The concentration of inhibitor needed to reduce the initial rate of hydrolysis of substrate by 50% (IC50) was calculated as the residual activity of β-lactamase at 486 nm using the SoftMax Pro 5.0 software (Molecular Devices Corp.).

Class A ESBL CTXM-15 = target: T2, Class A ESBL CTXM-15 (Escherichia coli, UniProt Q9EXV5); assay: β-lactamase enzyme inhibition (nitrocefin hydrolysis), CTXM-15; type: biochemical; settings: purified enzyme; nitrocefin 100 μM, PBS pH 7.0; read-out: CTXM-15 IC50 Range
T2 construct: made in house; host or cells: E. coli BL21(DE3)
T2 sequence (Q9EXV5 entry or part of it): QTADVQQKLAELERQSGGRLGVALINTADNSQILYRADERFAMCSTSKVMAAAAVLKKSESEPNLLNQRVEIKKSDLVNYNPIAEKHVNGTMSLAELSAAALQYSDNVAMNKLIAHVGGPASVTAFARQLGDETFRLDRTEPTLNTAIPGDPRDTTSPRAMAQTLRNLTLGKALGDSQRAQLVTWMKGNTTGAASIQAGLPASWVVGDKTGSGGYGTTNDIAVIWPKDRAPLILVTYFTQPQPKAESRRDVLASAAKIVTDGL
Protocol: as §1, §2, §3

Class C P99 AmpC = target: T3, Class C P99 AmpC (Enterobacter cloacae, UniProt P05364); type: biochemical; settings: purified enzyme; nitrocefin 100 μM, PBS pH 7.0; read-out: P99 AmpC IC50 Range
T3 construct: made in house; host or cells: E. coli BL21(DE3)
T3 sequence (P05364 21-381): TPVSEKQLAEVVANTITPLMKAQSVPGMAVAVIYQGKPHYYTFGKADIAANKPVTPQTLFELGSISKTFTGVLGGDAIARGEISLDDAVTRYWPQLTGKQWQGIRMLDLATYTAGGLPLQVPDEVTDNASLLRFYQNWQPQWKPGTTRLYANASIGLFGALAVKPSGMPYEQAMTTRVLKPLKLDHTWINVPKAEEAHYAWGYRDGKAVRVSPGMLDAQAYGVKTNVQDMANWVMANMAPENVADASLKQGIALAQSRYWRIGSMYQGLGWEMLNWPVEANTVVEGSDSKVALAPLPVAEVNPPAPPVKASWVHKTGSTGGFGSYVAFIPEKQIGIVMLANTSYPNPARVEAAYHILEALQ
Protocol: as §1, §2, §3

[1] = system: K. pneumoniae expressing the Class A ESBL CTX-M-15; assay: microbe, parasite or virus in culture; type: cell-based; settings: in the presence of fixed 8 μg/mL Ceftazidime
Text: To determine the ability of test compounds to potentiate the inhibition of the growth of bacterial strains producing beta-lactamase enzymes, classic cell based screening assays were employed. Four bacteria strains producing beta-lactamase enzymes were used: K. pneumoniae expressing the Class A Extended Spectrum Beta-Lactamase (ESBL) CTX-M-15, E. coli expressing the Class A ESBL SHV-5, E. cloacae expressing the Class C P99+, and K. pneumoniae expressing the Class A carbapenemase KPC-2. In order to evaluate the ability of test compounds to inhibit beta-lactamase activity, Applicants used a modification of the broth microdilution assay. The assay was conducted in Cation Adjusted Mueller Hinton Broth (CAMHB, BD # 212322, BD Diagnostic Systems, Sparks, Md.). Bacteria strains were grown for 3-5 hours in CAMBH broth. All four strains were grown in presence of 50 μg/mL ampicillin to ensure resistance is maintained. In the meantime, test compounds were diluted in DMSO to a 0.1 mg/mL stock. The compounds were added to a microtiter plate and were diluted in 2-fold serial dilutions in CAMHB in a final concentration range of 8 μg/mL to 0.015 μg/ml. […] […] Each of these compound plates are made in quadruplicate, one for each bacteria strain. In addition to the titration of test compounds the MICs of a panel of cephalosporins is also tested to ensure the strains are behaving consistently from test to test. Once the test compound and cephalosporin are added the plates can be inoculated. Inocula are conducted according to CLSI broth microdilution method. After inoculation the plates are incubated for 16-20 hours at 37° C. then the Minimal Inhibitory Concentration (MIC) of the test compound is determined visually.

[2] = system: K. pneumoniae expressing the Class A carbapenemase KPC-2; assay: microbe, parasite or virus in culture; settings: in the presence of fixed 8 μg/mL Ceftazidime
Text: To determine the ability of test compounds to potentiate the inhibition of the growth of bacterial strains producing beta-lactamase enzymes, classic cell based screening assays were employed. Four bacteria strains producing beta-lactamase enzymes were used: K. pneumoniae expressing the Class A Extended Spectrum Beta-Lactamase (ESBL) CTX-M-15, E. coli expressing the Class A ESBL SHV-5, E. cloacae expressing the Class C P99+, and K. pneumoniae expressing the Class A carbapenemase KPC-2. In order to evaluate the ability of test compounds to inhibit beta-lactamase activity, Applicants used a modification of the broth microdilution assay. The assay was conducted in Cation Adjusted Mueller Hinton Broth (CAMHB, BD # 212322, BD Diagnostic Systems, Sparks, Md.). Bacteria strains were grown for 3-5 hours in CAMBH broth. All four strains were grown in presence of 50 μg/mL ampicillin to ensure resistance is maintained. In the meantime, test compounds were diluted in DMSO to a 0.1 mg/mL stock. The compounds were added to a microtiter plate and were diluted in 2-fold serial dilutions in CAMHB in a final concentration range of 8 μg/mL to 0.015 μg/ml. An overlay of CAMHB containing a cephalosporin was added to the compounds at a final static concentration of 8 μg/ml. […] Each of these compound plates are made in quadruplicate, one for each bacteria strain. In addition to the titration of test compounds the MICs of a panel of cephalosporins is also tested to ensure the strains are behaving consistently from test to test. Once the test compound and cephalosporin are added the plates can be inoculated. Inocula are conducted according to CLSI broth microdilution method. After inoculation the plates are incubated for 16-20 hours at 37° C. then the Minimal Inhibitory Concentration (MIC) of the test compound is determined visually.

[3] = target: T4, Class A carbapenemase KPC-2 (Klebsiella pneumoniae, UniProt Q9F663); assay: β-lactamase enzyme inhibition (nitrocefin hydrolysis), KPC-2; type: biochemical; settings: purified enzyme; nitrocefin 100 μM, PBS pH 7.0; read-out: KPC-2 IC50 Range
T4 construct: made in house; host or cells: E. coli BL21(DE3)
T4 sequence (Q9F663 25-293 limits assumed): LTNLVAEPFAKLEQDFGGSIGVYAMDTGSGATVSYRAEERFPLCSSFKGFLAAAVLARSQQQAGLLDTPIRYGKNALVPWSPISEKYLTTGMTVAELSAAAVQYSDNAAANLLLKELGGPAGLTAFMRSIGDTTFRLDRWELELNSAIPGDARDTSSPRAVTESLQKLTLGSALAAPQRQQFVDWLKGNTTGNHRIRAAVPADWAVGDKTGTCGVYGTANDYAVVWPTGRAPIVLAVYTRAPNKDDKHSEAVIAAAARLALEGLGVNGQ
Protocol: as §1, §2, §3

[4] = cellular extracts of E. coli containing SHV-5 (Examples 2-30)
[5] = purified beta-lactamase enzyme (Examples 1 and 31-64)

Structure (SMILES) | IC50 (Class A ESBL SHV-5; [4]) | IC50 (Class A ESBL CTXM-15) | IC50 (Class C P99 AmpC) | MIC of example compound, K. pneumoniae CTX-M-15 + 8 μg/mL CAZ [1] | MIC of example compound, K. pneumoniae KPC-2 + 8 μg/mL CAZ [2] | IC50 [3] | IC50 (Class A ESBL SHV-5; [5])
O=C(Cc1cccc(O)c1)N[C@@H](Cc1cccc(C(=O)O)c1O)B(O)O [Example 3, (1R)-1-(3-hydroxy-phenyl)acetylamino-1-(3-carboxy-2-hydroxy)benzyl-methyl boronic acid] | < 10 nM | < 10 nM | < 10 nM | C (C represents an MIC of <1 μg/mL) | C (C represents an MIC of <1 μg/mL) |  | 
O=C(O)c1cccc(C[C@H](NC(=O)c2cccc3ccccc23)B(O)O)c1O [Example 27, (1R)-1-(1-naphthoylamino)-2-(2-hydroxy-3-carboxyphenyl)ethyl-1-boronic acid] | 10 to 100 nM | < 10 nM | < 10 nM |  | C (C represents an MIC of <1 μg/mL) | < 10 nM | 
Cc1ccccc1C(=O)N[C@@H](Cc1cccc(C(=O)O)c1O)B(O)O [Example 30, (1R)-1-(2-methylbenzoylamino)-2-(2-hydroxy-3-carboxyphenyl)ethyl-1-boronic acid] | 10 to 100 nM | < 10 nM | < 10 nM |  | C (C represents an MIC of <1 μg/mL) | < 10 nM | 
O=C(N[C@@H](Cc1cccc(C(=O)O)c1O)B(O)O)c1ccc(Cl)cc1 [Example 32, (1R)-1-(4-Chloro-benzoyl)-amino-1-(3-carboxy-2-hydroxy)benzyl-methylboronic acid] |  | < 10 nM | < 10 nM |  | C (C represents an MIC of <1 μg/mL) | < 10 nM | 10 to 100 nM
COc1ccc(C(=O)N[C@@H](Cc2cccc(C(=O)O)c2O)B(O)O)cc1 [Example 33, (1R)-1-(4-Methoxybenzoyl)-amino-1-(3-carboxy-2-hydroxy)benzyl-methylboronic acid] |  | < 10 nM | < 10 nM |  | C (C represents an MIC of <1 μg/mL) | < 10 nM | 100 to 1000 nM
O=C(N[C@@H](Cc1cccc(C(=O)O)c1O)B(O)O)c1ccccc1O [Example 35, (1R)-1-(2-hydroxybenzoylamino)-2-(2-hydroxy-3-carboxyphenyl)ethyl-1-boronic acid] |  | < 10 nM | < 10 nM |  | C (C represents an MIC of <1 μg/mL) | 10 to 100 nM | 10 to 100 nM
O=C(CN1C(=O)c2ccccc2C1=O)N[C@@H](Cc1cccc(C(=O)O)c1O)B(O)O [Example 45, (1R)-1-(2-(1,3-dioxoisoindolin-2-yl)acetylamino)-2-(2-hydroxy-3-carboxyphenyl)ethyl-1-boronic acid] |  | < 10 nM | < 10 nM |  | C (C represents an MIC of <1 μg/mL) | < 10 nM | < 10 nM
O=C(N[C@@H](Cc1cccc(C(=O)O)c1O)B(O)O)c1ccncc1 [Example 55, (1R)-1-(Pyridine-4-carbonyl-amino)-2-(2-hydroxy-3-carboxyphenyl)ethyl-1-boronic acid] |  | < 10 nM | < 10 nM |  |  | < 10 nM | 10 to 100 nM
O=C(N[C@@H](Cc1cccc(C(=O)O)c1O)B(O)O)c1cccc(-n2ccnc2)c1 [Example 57, (1R)-1-(3-Imidazol-1-yl-benzoylaminoamino)-2-(2-hydroxy-3-carboxyphenyl)ethyl-1-boronic acid] |  | < 10 nM | < 10 nM |  | C (C represents an MIC of <1 μg/mL) | < 10 nM | < 10 nM
O=C(N[C@@H](Cc1cccc(C(=O)O)c1O)B(O)O)c1cnccn1 [Example 58, (1R)-1-(Pyrazine-2-carbonyl-amino)-2-(2-hydroxy-3-carboxyphenyl)ethyl-1-boronic acid] |  | < 10 nM | 10 to 100 nM |  | C (C represents an MIC of <1 μg/mL) | < 10 nM | 10 to 100 nM
CC(=O)Nc1nc(CC(=O)N[C@@H](Cc2cccc(C(=O)O)c2O)B(O)O)cs1 [Example 63, (1R)-1-((2-Acetylamino-thiazol-4-yl)-acetylamino)-2-(2-hydroxy-3-carboxyphenyl)ethyl-1-boronic acid] |  | < 10 nM | < 10 nM |  | C (C represents an MIC of <1 μg/mL) | < 10 nM | < 10 nM
